Measured values as given in patent publication US5294611A, “Angiotensin II receptor blocking 2,3,6 substituted quinazolinones” (American Cyanamid Company, priority 1993, dated 1994).
Where two headings read alike, the source gives them in different places.

Test system: Angiotensin II (AII) vasopressor response
Test: AII Challenge: antagonism of angiotensin II vasopressor response in conscious spontaneously hypertensive rats
Format: in vivo, rat (male okamoto-Aoki SHR)
Details: for inhibition in vivo at 3 mg/kg / inhibition in vivo at 1 mg/kg: Rattus norvegicus, iv; for inhibition in vivo at 3 mg/kg / Average Change / inhibition in vivo at 1 mg/kg: SHR n=2; for inhibition in vivo at 3 mg/kg: read-out: Inhibition; for Change: single SHR
Text: Conscious Male okamoto-Aoki SHR, 16-20 weeks old, weighing approximately 330 g are purchased from Charles River Labs (Wilmington, Mass.). Conscious rats are restrained in a supine position with elastic tape. The area at the base of the tail is locally anesthetized by subcutaneous infiltration with 2% procaine. […] The cannula is secured, heparinized (1,000 I.U./ml), sealed and the wound is closed. The animals are placed in plastic restraining cages in an upright position. The cannula is attached to a Statham P23Db pressure transducer, and pulsatile blood pressure is recorded to 10-15 minutes with a Gould Brush recorder. […] Angiotensin II (human sequence, Sigma Chem. Co., St. Louis, Mo.) of 0.05 and 0.1 ug/kg i.v. is injected into all rats (predosing response). Then a test compound, vehicle or a known angiotensin II antagonist is administered i.v., i.p. or orally to each set of rats. […] The vasopressor response of angiotensin II is measured for the increase in systolic blood pressure in mmHg.

[1] = 0.5 h, 3 mg/kg I.V., AII 0.05 mcg/kg IV, 30 min post dose
[2] = 0.5 h, 3 mg/kg I.V., AII 0.1 mcg/kg IV, 30 min post dose
[3] = 1 h, 3 mg/kg I.V., AII 0.05 mcg/kg IV, 60 min post dose
[4] = 1 h, 3 mg/kg I.V., AII 0.1 mcg/kg IV, 60 min post dose
[5] = 2 h, 3 mg/kg I.V., AII 0.05 mcg/kg IV, 120 min post dose
[6] = 2 h, 3 mg/kg I.V., AII 0.1 mcg/kg IV, 120 min post dose
[7] = 3 h, 3 mg/kg I.V., AII 0.05 mcg/kg IV, 180 min post dose
[8] = 3 h, 3 mg/kg I.V., AII 0.1 mcg/kg IV, 180 min post dose
[9] = 4 h, 3 mg/kg I.V., AII 0.05 mcg/kg IV, 240 min post dose
[10] = 4 h, 3 mg/kg I.V., AII 0.1 mcg/kg IV, 240 min post dose
[11] = 5 h, 3 mg/kg I.V., AII 0.05 mcg/kg IV, 300 min post dose
[12] = 5 h, 3 mg/kg I.V., AII 0.1 mcg/kg IV, 300 min post dose
[13] = […], 3 mg/kg I.V., AII 0.05 mcg/kg IV, 90 min post dose
[14] = […], 3 mg/kg I.V., AII 0.1 mcg/kg IV, 90 min post dose
[15] = 3 mg/kg I.V., AII 0.05 mcg/kg IV, 30 min post dose
[16] = 3 mg/kg I.V., AII 0.05 mcg/kg IV, 60 min post dose
[17] = 3 mg/kg I.V., AII 0.05 mcg/kg IV, 90 min post dose
[18] = 3 mg/kg I.V., AII 0.05 mcg/kg IV, 120 min post dose
[19] = 3 mg/kg I.V., AII 0.05 mcg/kg IV, 180 min post dose
[20] = 3 mg/kg I.V., AII 0.05 mcg/kg IV, 240 min post dose
[21] = 3 mg/kg I.V., AII 0.1 mcg/kg IV, 30 min post dose
[22] = 3 mg/kg I.V., AII 0.1 mcg/kg IV, 60 min post dose
[23] = 3 mg/kg I.V., AII 0.1 mcg/kg IV, 90 min post dose
[24] = 3 mg/kg I.V., AII 0.1 mcg/kg IV, 120 min post dose
[25] = 3 mg/kg I.V., AII 0.1 mcg/kg IV, 180 min post dose
[26] = 3 mg/kg I.V., AII 0.1 mcg/kg IV, 240 min post dose
[27] = 3 mg/kg I.V., AII 0.1 mcg/kg IV, 300 min post dose
[28] = 3 mg/kg I.V., AII 0.05 mcg/kg IV, 300 min post dose
[29] = 1 mg/kg I.V., AII 0.05 mcg/kg IV, 60 min post dose
[30] = 1 mg/kg I.V., AII 0.05 mcg/kg IV, 300 min post dose

CCCCc1nc2ccc([C@H]3[C@@H]4CCCCCC[C@@H]4ON3C)cc2c(=O)n1Cc1ccc(-c2ccccc2-c2nnn[nH]2)cc1 (relative stereo) [Example 52]
inhibition in vivo at 3 mg/kg [1]: 89% | inhibition in vivo at 3 mg/kg [2]: 76% | inhibition in vivo at 3 mg/kg [3]: 80% | inhibition in vivo at 3 mg/kg [4]: 59% | inhibition in vivo at 3 mg/kg [5]: 63% | inhibition in vivo at 3 mg/kg [6]: 59% | inhibition in vivo at 3 mg/kg [7]: 20% | inhibition in vivo at 3 mg/kg [8]: 12% | inhibition in vivo at 3 mg/kg [9]: 27% | inhibition in vivo at 3 mg/kg [10]: 47% | inhibition in vivo at 3 mg/kg [11]: 33% | inhibition in vivo at 3 mg/kg [12]: 15% | inhibition in vivo at 3 mg/kg [13]: 24% | inhibition in vivo at 3 mg/kg [14]: 53% | Average Change [15]: 4 mmHg | Average Change [16]: 7.5 mmHg | Average Change [17]: 28.5 mmHg | Average Change [18]: 14 mmHg | Average Change [19]: 30 mmHg | Average Change [20]: 27.5 mmHg | Average Change [21]: 10 mmHg | Average Change [22]: 17.5 mmHg | Average Change [23]: 20 mmHg | Average Change [24]: 17.5 mmHg | Average Change [25]: 37.5 mmHg | Average Change [26]: 22.5 mmHg | Average Change [27]: 36 mmHg | Change [19]: 30 mmHg | Change [28]: 25 mmHg | Change [21]: 10 mmHg

CCCCc1nc2ccc(C3CC4CCCCN3O4)cc2c(=O)n1Cc1ccc(-c2ccccc2-c2nnn[nH]2)cc1 (stereo not drawn) [Example 18, cis-2-Butyl-6-(9-oxa-1-azabicyclo[4.2.1]non-8-yl)-3-[[2'-(1H-tetrazol-5-yl)[1,1'-biphenyl]-4-yl-methyl-4(3H)-quinazolinone]
inhibition in vivo at 3 mg/kg [1]: 68% | inhibition in vivo at 3 mg/kg [2]: 75% | inhibition in vivo at 3 mg/kg [3]: 53% | inhibition in vivo at 3 mg/kg [4]: 60% | inhibition in vivo at 3 mg/kg [5]: 5% | inhibition in vivo at 3 mg/kg [6]: 0% | inhibition in vivo at 3 mg/kg [7]: 58% | inhibition in vivo at 3 mg/kg [8]: 50% | inhibition in vivo at 3 mg/kg [9]: 63% | inhibition in vivo at 3 mg/kg [10]: 10% | inhibition in vivo at 3 mg/kg [11]: 11% | inhibition in vivo at 3 mg/kg [12]: 45% | inhibition in vivo at 3 mg/kg [13]: 47% | inhibition in vivo at 3 mg/kg [14]: 45% | Average Change [15]: 15 mmHg | Average Change [16]: 22.5 mmHg | Average Change [17]: 25 mmHg | Average Change [18]: 45 mmHg | Average Change [19]: 20 mmHg | Average Change [20]: 17.5 mmHg | Average Change [28]: 42.5 mmHg | Average Change [21]: 12.5 mmHg | Average Change [22]: 20 mmHg | Average Change [23]: 27.5 mmHg | Average Change [24]: 50 mmHg | Average Change [25]: 25 mmHg | Average Change [26]: 45 mmHg | Average Change [27]: 27.5 mmHg

CCCCc1nc2ccc(C3C4CCCN3OC4)cc2c(=O)n1Cc1ccc(-c2ccccc2-c2nnn[nH]2)cc1 (stereo not shown) [Example 21]
inhibition in vivo at 1 mg/kg (0.5 h, 1 mg/kg I.V., AII 0.05 mcg/kg IV, 30 min post dose): 53% | inhibition in vivo at 1 mg/kg (0.5 h, 1 mg/kg I.V., AII 0.1 mcg/kg IV, 30 min post dose): 53% | inhibition in vivo at 1 mg/kg (1 h, 1 mg/kg I.V., AII 0.05 mcg/kg IV, 60 min post dose): 68% | inhibition in vivo at 1 mg/kg (1 h, 1 mg/kg I.V., AII 0.1 mcg/kg IV, 60 min post dose): 56% | inhibition in vivo at 1 mg/kg (2 h, 1 mg/kg I.V., AII 0.05 mcg/kg IV, 120 min post dose): 63% | inhibition in vivo at 1 mg/kg (2 h, 1 mg/kg I.V., AII 0.1 mcg/kg IV, 120 min post dose): 61% | inhibition in vivo at 1 mg/kg (3 h, 1 mg/kg I.V., AII 0.05 mcg/kg IV, 180 min post dose): 63% | inhibition in vivo at 1 mg/kg (3 h, 1 mg/kg I.V., AII 0.1 mcg/kg IV, 180 min post dose): 47% | inhibition in vivo at 1 mg/kg (4 h, 1 mg/kg I.V., AII 0.05 mcg/kg IV, 240 min post dose): 42% | inhibition in vivo at 1 mg/kg (4 h, 1 mg/kg I.V., AII 0.1 mcg/kg IV, 240 min post dose): 61% | inhibition in vivo at 1 mg/kg (5 h, 1 mg/kg I.V., AII 0.05 mcg/kg IV, 300 min post dose): 37% | inhibition in vivo at 1 mg/kg (5 h, 1 mg/kg I.V., AII 0.1 mcg/kg IV, 300 min post dose): 34% | inhibition in vivo at 1 mg/kg ([…], 1 mg/kg I.V., AII 0.05 mcg/kg IV, 90 min post dose): 63% | inhibition in vivo at 1 mg/kg ([…], 1 mg/kg I.V., AII 0.1 mcg/kg IV, 90 min post dose): 52% | Average Change (1 mg/kg I.V., AII 0.05 mcg/kg IV, 30 min post dose): 22.5 mmHg | Average Change [29]: 15 mmHg | Average Change (1 mg/kg I.V., AII 0.05 mcg/kg IV, 90 min post dose): 17.5 mmHg | Average Change (1 mg/kg I.V., AII 0.05 mcg/kg IV, 120 min post dose): 17.5 mmHg | Average Change (1 mg/kg I.V., AII 0.05 mcg/kg IV, 180 min post dose): 17.5 mmHg | Average Change (1 mg/kg I.V., AII 0.05 mcg/kg IV, 240 min post dose): 27.5 mmHg | Average Change [30]: 30 mmHg | Average Change (1 mg/kg I.V., AII 0.1 mcg/kg IV, 30 min post dose): 27 mmHg | Average Change (1 mg/kg I.V., AII 0.1 mcg/kg IV, 60 min post dose): 25 mmHg | Average Change (1 mg/kg I.V., AII 0.1 mcg/kg IV, 90 min post dose): 27.5 mmHg | Average Change (1 mg/kg I.V., AII 0.1 mcg/kg IV, 120 min post dose): 22.5 mmHg | Average Change (1 mg/kg I.V., AII 0.1 mcg/kg IV, 180 min post dose): 30 mmHg | Average Change (1 mg/kg I.V., AII 0.1 mcg/kg IV, 240 min post dose): 22.5 mmHg | Average Change (1 mg/kg I.V., AII 0.1 mcg/kg IV, 300 min post dose): 37.5 mmHg | Change [29]: 15 mmHg | Change [30]: 30 mmHg
